Patent publication US20210260069A1, “IRE1a INHIBITOR IN COMBINATION WITH CANCER [sequence] AGENT FOR CANCER TREATMENT” (Fosun Orinove PharmaTech, Inc., priority 2018, published 2021)

Legend:
[1] = system: XBP1s; assay: Determination of XBP1s level induced by various compounds (RT-qPCR splicing assay), several cell lines; format: cell-based, human; conditions: for induction of XBP1s: in a time, cell or concentration dependent manner; for ER stress measured by XBP1s level (FIG. 6): Hep G2, MCF-7 and RPMI 8226 cells, 1, 2 or 4 hours
Protocol: (§1) This method applies to any mammalian cell line but was typically applied to human MM1s myeloma cells for EC50 and RPMI 8826 plasmacytoma cells for confirmation of selected compounds. Briefly, cells were grown in standard conditions and spread into 96 well tissue culture plates. Cells were treated with compounds with indicated concentration using serial dilutions. DTT (dithiothreitol) or compounds were added at the same time and cells were harvested after indicated hour's treatment. Cells treated with DTT alone were used as 100% XBP1s positive controls and cell left untreated were used as base line XBP1s level.
(§2) Splicing Assay: Total RNA was isolated from cells treated with compounds using Applied Biosystems RNAqueous kit. 1 μg of total RNA was reverse transcribed using Oligo dt (12-18) (Invitrogen). The cDNA was then amplified at 95° C. for 8 min and 30 sec, then 40 cycles at 95° C. for 15 sec and 63° C. for 1 min. Samples were run against a purified standard curve for both spliced and unspliced XBP1, and further normalized to internal house-keeping gene GAPDH.

[2] = system: MCF-7 cells; assay: XBP1s level induced in MCF-7 cells; format: cell-based, human
Protocol: as §1, §2
(§3) The same methods were used as above for Lestaurtinib.

[3] = system: Hepatoma cells; assay: XBP1s level induced in Hepatoma (Hep G2) cells; format: cell-based, human
Protocol: as §1, §2

[4] = system: A549 cells; assay: XBP1s level induced in A549 cells; format: cell-based, human
Protocol: as §1, with “Briefly,” for “This method applies to any mammalian cell line but was typically applied to human MM1s myeloma cells for EC50 and RPMI 8826 plasmacytoma cells for confirmation of selected compounds. Briefly,”
as §2, §3

[5] = system: RPMI 8226 cells; assay: XBP1s level induced in RPMI 8226 cells; format: cell-based, human
Protocol: as §1, with “Briefly,” for “This method applies to any mammalian cell line but was typically applied to human MM1s myeloma cells for EC50 and RPMI 8826 plasmacytoma cells for confirmation of selected compounds. Briefly,”
as §2, §3

[6] = system: MM1s cells; assay: XBP1s level induced in MM1s cells; format: cell-based, human
Protocol: as §1, §2, §3

[7] = system: human glioblastoma U-87 MG tumor cells; assay: U-87 MG glioblastoma xenograft (Example 19); format: in vivo, female NCr nu/nu mice
Protocol: (§4) Orin 1001 was administered by oral gavage in a xenograft mouse model using female NCr nu/nu mice injected subcutaneously with human glioblastoma U-87 MG tumor cells, a glioblastoma multiforme (GBM) cell line. Animals were assigned to 4 groups (n=6/group); Vehicle control administered by oral gavage for 28 days, Orin 1001 administered via oral gavage at 300 mg/kg/day for 28 consecutive days, paclitaxel administered weekly by iv at 15 mg/kg, or Orin 1001 administered in combination with paclitaxel.
The percent tumor growth delay was calculated using the following equation: TGD (%)=[T-C/C]×100; where T-C is the difference in time to tumor endpoint from Treated (T) and Control (C).
The time to tumor endpoint (TTE) for each animal was further calculated using the following equation: TTE (days)=log 10 (endpoint volume, mm^3)-b/m, where b is the intercept and m is the slope of the line obtained by linear regression of the log-transformed tumor growth data set.

[8] = system: human ovarian carcinoma A2780 tumor cells; assay: A2780 ovarian carcinoma xenograft (Example 18); format: in vivo, female NCr nu/nu mice; conditions: Orin 1001 300 mg/kg/day oral 28 days; paclitaxel 15 mg/kg iv weekly; endpoint 2000 mm^3 or Day 60
Protocol: as §4, with “ovarian carcinoma A2780” for “glioblastoma U-87 MG”, “cells.” for “cells, a glioblastoma multiforme (GBM) cell line.”
The percent tumor growth delay was calculated using the following equation: TGD (%)=[T-C/C]×100, where T-C is the difference in time to tumor endpoint from Treated (T) and Control (C).

[9] = system: human breast adenocarcinoma MDA-MB231 tumor cells; format: in vivo; conditions: Orin 1001 300 mg/kg where given; paclitaxel 10 mg/kg iv weekly; n=10/group
Protocol: Orin 1001 was administered by oral gavage in combination with paclitaxel in a xenograft mouse model using female NCr nu/nu mice (n=10 in each group) injected subcutaneously with human breast adenocarcinoma MDA-MB231 tumor cells. To evaluate the effect of Orin 1001 in combination with paclitaxel, Orin 1001 was administered via oral gavage at 75, 150 or 300 mg/kg/day in combination with paclitaxel at 10 mg/kg iv, weekly (n=10/group) for up to 60 days.

[10] = system: human liver HUH-7 cells; assay: Subcutaneous HUH-7 liver cancer xenograft model, survival (Example 23); format: in vivo, Female BALB/c nude mice
Protocol: Female BALB/c nude mice were subcutaneously inoculated with human liver HUH-7 cells (from JCRB) to establish a xenograft model of liver cancer. The scheduled administration cycle was 28 days. Animals were assigned into 4 groups (n=10/group): one vehicle group, two single treatment groups (Orin 1001 administered at 80 mg/kg/day q.d. for 28 days; Sorafenib administered following a dose regimen of 18.25 mg/kg/day q.d. for 5 days, then 25 mg/kg/day q.d. for 3 days, and then 45 mg/kg/day q.d. for 20 days, consecutively) and one combination treatment group (sorafenib administered following a dose regimen of 18.25 mg/kg/day q.d. for 5 days, then 25 mg/kg/day q.d. for 3 days, and then 45 mg/kg/day q.d. for 20 days, consecutively, whilst combined with Orin 1001 administered q.d. at a dose of 80 mg/kg/day for 28 days). All vehicle or administration treatments were given via oral gavage. Sorafenib was formulated with Kolliphor® EL/ethanol (2/1, v/v) and water. Orin 1001 was dissolved with cellulose microcrystalline and sucrose in purified water to form as suspension. The mice were euthanized if a tumor volume achieved over 2000 mm^3. Otherwise the experiment ended on the 6th day after the last administration.

[11] = system: Hep3B-Luc cells; assay: Orthotopic Hep3B-luc human liver xenograft model (Example 22); format: in vivo, female BALB/c nude mice
Protocol: The tumor was inoculated by injecting Hep3B-Luc cells (established by WuXi AppTec R&D center) mixed with BD Matrigel in 20 μl (PBS:Matrigel=1:1) into the left lobe of the liver. […] Sorafenib was formulated with Cremophor® EL/ethanol (1:1) and purified water to form a solution of 9 mg/ml. […] Tumor weight was measured at the termination of study. T/Cweight value (in percent) was calculated using the formula: T/Cweight%=Tweight/Cweight×100%, while Tweight and Cweight were the mean tumor weights of the treated and the vehicle control groups, respectively.

[12] = system: RPMI 8226 tumor cells; assay: Intratumoral XBP-1 spliced effect in Velcade treated RPMI xenografts; format: in vivo, Nude mice; conditions: Velcade 0.8 mg/kg IV on day 21 and day 24, RPMI 8226 xenograft
Protocol: The mice were treated again on the 24th day with Velcade®. On Day 27, the mice were treated with Orin 1001 at 30 mg/kg PO, four hours later the mice were sacrificed as in Example 25, and tumor tissues were isolated. In a similar way as described for the liver PD test in Example 25, RNA extraction and RT-PCR analysis gave the results as shown FIG. 13.
BALB/c mice were injected intraperitoneally with 100 microliters at an equivalent dose of 1 mg/kg tunicamycin solution. Two hours after tunicamycin injection, mice were dosed with compound of interest either PO or IV. Following 2 hours for PO delivery of compound, mice were euthanized according to IACUC protocols using CO2 from a […] source. A 1 cm^3 fragment of the liver for homogenization and extraction of the RNA were collected for further analysis. Total RNA is harvested from cells or tissue using TRIzol according to the manufacturer's procedures. After ethanol precipitation and resuspension of the RNA, RiboGreen (Invitrogen) is used to quantify the yield and normalize the RNA concentration in the source tube containing isolated RNA. RT-PCR is performed by Oligo(dT) priming, and SuperScript II (Invitrogen) transcription using the Amplitaq Gold Kit (Applied Biosystems) according to the manufacturer's protocols. […]

[13] = system: HT-29 cells; assay: XBP1s level induced in HT-29 cells; format: cell-based, human
Protocol: as §1, §2, §3

[14] = Orin 1001 300 mg/kg/day oral 28 days, paclitaxel 15 mg/kg iv weekly, endpoint 2000 mm^3 or Day 60

C=CCNC1=C2C[C@@H](C)C[C@H](OC)[C@H](O)[C@@H](C)/C=C(\C)[C@H](OC(N)=O)[C@@H](OC)/C=C\C=C(/C)C(=O)NC(=CC1=O)C2=O [17-AAG]
induction of XBP1s [1]: able to induce XBP1s | levels of XBP1s ([2]; 1 hour of treatment): high levels | levels of XBP1s ([2]; 2 hours of treatment): modest levels | levels of XBP1s ([2]; 4 hours of treatment): low levels | levels of XBP1s ([3]; 1 hour of treatment): high levels | levels of XBP1s ([3]; 2 hours of treatment): modest levels | levels of XBP1s ([3]; 4 hours of treatment): low levels

COc1cc2ncnc(Nc3ccc(F)c(Cl)c3)c2cc1OCCCN1CCOCC1 [Gefitinib]
induction of XBP1s [1]: able to induce XBP1s | levels of XBP1s ([4]; 1 hour of treatment): increasing | levels of XBP1s ([4]; 2 hours of treatment): highest levels

Nc1ccn([C@@H]2O[C@H](CO)[C@@H](O)C2(F)F)c(=O)n1 [Gemcitabine]
induction of XBP1s [1]: able to induce XBP1s | levels of XBP1s ([5]; 1 hour of treatment): low levels | levels of XBP1s ([5]; 2 hours of treatment): low levels | levels of XBP1s ([5]; 4 hours of treatment): high levels

Cc1cn(-c2cc(NC(=O)c3ccc(C)c(Nc4nccc(-c5cccnc5)n4)c3)cc(C(F)(F)F)c2)cn1 [Nilotinib]
induction of XBP1s [1]: able to induce XBP1s | XBP1s induced ([6]; 1 hour of treatment): modest amounts | XBP1s induced ([6]; 2 hours of treatment): greater than 50% | XBP1s induced ([6]; 4 hours of treatment): modest amounts

CC(=O)O[C@H]1C(=O)[C@@]2(C)[C@H]([C@H](OC(=O)c3ccccc3)[C@]3(O)C[C@H](OC(=O)[C@H](O)[C@@H](NC(=O)c4ccccc4)c4ccccc4)C(C)=C1C3(C)C)[C@]1(OC(C)=O)CO[C@@H]1C[C@@H]2O [Paclitaxel]
percent tumor growth delay (TGD) [7, 14]: 17% | time to tumor endpoint (TTE) [7, 14]: 30.2 days | tumor delay effect over the control ([7]; each agent alone): not very significant | induction of XBP1s [1]: able to induce XBP1s | percent tumor growth delay (TGD) [8]: 40% | levels of XBP1s ([5]; 1 hour of treatment): high levels | levels of XBP1s ([5]; 2 hours of treatment): modest levels | levels of XBP1s ([5]; 4 hours of treatment): modest levels | partial regressions [9]: 1

CNC(=O)c1cc(Oc2ccc(NC(=O)Nc3ccc(Cl)c(C(F)(F)F)c3)cc2)ccn1 [Sorafenib]
Median Survival Time (MST) ([10]; Orin 1001 80 mg/kg/day q.d. 28 days, sorafenib 18.25/25/45 mg/kg, Kaplan-Meier): 24 days | ILS (%) (increase of life span) ([10]; versus vehicle group (group 1)): 20% | induction of XBP1s [1]: able to induce XBP1s | T/Cweight (%) ([11]; mean tumor weight treated / vehicle control, day 28): 19% | Tumor Weight (g) at day 28 ([11]; oral gavage 28 consecutive days, Orin 1001 80 mg/kg/day, sorafenib 45 mg/kg/day): 0.91 ± 0.29 g | levels of XBP1s ([4]; 1 hour of treatment): highest levels | levels of XBP1s ([4]; 2 hours of treatment): highest levels | levels of XBP1s ([4]; 4 hours of treatment): modest levels

CO[C@H]1C[C@@H]2CC[C@@H](C)[C@@](O)(O2)C(=O)C(=O)N2CCCC[C@H]2C(=O)O[C@H]([C@H](C)C[C@@H]2CC[C@@H](OC(=O)C(C)(CO)CO)[C@H](OC)C2)CC(=O)[C@H](C)/C=C(\C)[C@@H](O)[C@@H](OC)C(=O)[C@H](C)C[C@H](C)/C=C/C=C/C=C/1C [Torisel®, Temsirolimus]
ER stress measured by XBP1s level (FIG. 6) [1]: enhanced | induction of XBP1s [1]: able to induce XBP1s | levels of XBP1s ([4]; 1 hour of treatment): high levels | levels of XBP1s ([4]; 2 hours of treatment): modest levels | levels of XBP1s ([4]; 4 hours of treatment): high levels

Clc1ccc(Nc2nnc(Cc3ccncc3)c3ccccc23)cc1 [Vatalinib]
ER stress measured by XBP1s level (FIG. 6) [1]: enhanced | induction of XBP1s [1]: able to induce XBP1s

CC(C)C[C@H](NC(=O)[C@H](Cc1ccccc1)NC(=O)c1cnccn1)B(O)O [Velcade®, [(1R)-3-methyl-1-[[(2S)-1-oxo-3-phenyl-2-[(pyrazinylcarbonyl)amino]propyl]amino]butyl] boronic acid]
level of XBP1s in tumor [12]: increased the level of XBP1s

O=C(CCCCCCC(=O)Nc1ccccc1)NO [Vorinostat]
induction of XBP1s [1]: able to induce XBP1s | levels of XBP1s ([13]; 1 hour of treatment): high levels | levels of XBP1s ([13]; 2 hours of treatment): little | levels of XBP1s ([13]; 4 hours of treatment): little
